Test results from patent publication US7271158B2, “Treatment of rumen acidosis with α-amylase inhibitors” (Pfizer Inc., priority 2000, dated 2007).

Tested on: lactating cows in which chronic acidosis had been induced
Experiment: Efficacy of acarbose in lactating dairy cattle (induced chronic acidosis)
Type: in vivo, Holstein/Friesian cows
Source text: Efficacy of Acarbose in Lactating Dairy Cattle The study measured the effect of acarbose on rumen pH, milk yield and milk composition in lactating cows in which chronic acidosis had been induced by offering a highly fermentable diet. The study included measurement of rate of adaptation to the introduction and removal of acarbose. Experimental animals were six lactating multiparous Holstein/Friesian cows between 5 and 11 years of age and 500-750 kg, with permanent rumen cannulas. The animals started the experiment in early lactation, but not before peak lactation, to allow greater experimental sensitivity. The principal measurements in this study were pH in the ventral sac of the rumen, milk yield and milk composition. DESIGN: Animals enrolled into the study received test article for 21 consecutive days from the start time points described below. [table] Masking/Bias-Reducing Methods: Six lactating multiparous Holstein/Friesian cows were enrolled on to the study on Day-1. Animals were paired based on their calving date (cows with similar dates paired together). Within each pair, one animal received […] and the other […]. The treatment was assigned at random. […] The mean intake over the last 5 days of the preliminary period was calculated and this mean amount was offered to each animal throughout the trial. […] Fresh weight of TMR offered and refused was recorded daily for each animal. During non-measurement weeks ([…] period and adaptation weeks 1 and 2 in each experimental period), dry matter (DM) of main forage components (grass and maize […] determined approximately weekly (or more frequently if it appears necessary from visual assessment of the silage). For measurement weeks (i.e. week 3 in each experimental period), the DM of the TMR were measured daily for the last 5 days while a bulk of each of the individual TMR components (grass silage, maize silage, concentrate mix, ground wheat) were prepared from the same 5 days for subsequent diet analysis (i.e. one sample of each main feed per period). […]

CC1OC(OC2C(CO)OC(OC3C(CO)OC(O)C(O)C3O)C(O)C2O)C(O)C(O)C1NC1C=C(CO)C(O)C(O)C1O (stereo not drawn) [Acarbose, acarbose]
proportion of fat in the milk (treated animals, acarbose 15 g per day (control 32.8 g/L)): 46.1 g/L
milk fat (treated animals, acarbose 15 g per day (control average 1033 grams per day)): 1281 grams per day
average time below pH 5.5 (rumen) (treatment periods, acarbose 15 g per day in feed supplement (control periods 4.3 hours)): 3.4 hours
